From the supplement of paper PMC10307832

Key:
Assay in all cases: relative viability (nuclei count vs DMSO), 5 days (fraction); higher = more cells survive
[1] = compound: C=CCNC1=C2C[C@@H](C)C[C@H](OC)[C@H](O)[C@@H](C)/C=C(\C)[C@H](OC(N)=O)[C@@H](OC)/C=C\C=C(/C)C(=O)NC(=CC1=O)C2=O [17-AAG] + CC(=O)c1c(C)c2cnc(Nc3ccc(N4CCNCC4)cn3)nc2n(C2CCCC2)c1=O [Palbociclib] (partner 0.5 µM)
How it was run: (§1)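 A single step with final 0.05% Triton X-100, 1% formaldehyde and 1 ug/ml Hoechst fixed the cells and stained nuclei 5 days after treatment. Lung cancer cell lines in 1536-well plates had been treated by pin tool the day after seeding with one drug alone or a fixed anchor-drug dose plus five library-drug doses (not always all listed) in √10 steps, and nuclei were counted on 4× images. Relative viability is the ratio of nuclei in treated wells to nuclei in vehicle wells, taken as the median of duplicate plates.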

[2] = compound: C=CCNC1=C2C[C@@H](C)C[C@H](OC)[C@H](O)[C@@H](C)/C=C(\C)[C@H](OC(N)=O)[C@@H](OC)/C=C\C=C(/C)C(=O)NC(=CC1=O)C2=O [17-AAG] + Cc1nc(NC(=O)N2CCC[C@H]2C(N)=O)sc1-c1ccnc(C(C)(C)C(F)(F)F)c1 [Alpelisib] (partner 2 µM)
How it was run: as §1

[3] = compound: C=CCNC1=C2C[C@@H](C)C[C@H](OC)[C@H](O)[C@@H](C)/C=C(\C)[C@H](OC(N)=O)[C@@H](OC)/C=C\C=C(/C)C(=O)NC(=CC1=O)C2=O [17-AAG] + Nc1nc2[nH]cc(CCc3ccc(C(=O)N[C@@H](CCC(=O)O)C(=O)O)cc3)c2c(=O)[nH]1 [Pemetrexed] (partner 0.2 µM)
How it was run: as §1

[4] = compound: C=CCNC1=C2C[C@@H](C)C[C@H](OC)[C@H](O)[C@@H](C)/C=C(\C)[C@H](OC(N)=O)[C@@H](OC)/C=C\C=C(/C)C(=O)NC(=CC1=O)C2=O [17-AAG] + O=C(c1cc(Cc2n[nH]c(=O)c3ccccc23)ccc1F)N1CCN(C(=O)C2CC2)CC1 [Olaparib] (partner 8 µM)
How it was run: as §1

Cell Line	relative viability ([1]; first compound 0.00128 µM)	relative viability ([1]; first compound 0.004048 µM)	relative viability ([1]; first compound 0.0128 µM)	relative viability ([1]; first compound 0.04048 µM)	relative viability ([1]; first compound 0.128 µM)	relative viability ([2]; first compound 0.00128 µM)	relative viability ([2]; first compound 0.0128 µM)	relative viability ([2]; first compound 0.04048 µM)	relative viability ([2]; first compound 0.128 µM)	relative viability ([3]; first compound 0.00128 µM)	relative viability ([3]; first compound 0.004048 µM)	relative viability ([3]; first compound 0.0128 µM)	relative viability ([3]; first compound 0.04048 µM)	relative viability ([3]; first compound 0.128 µM)	relative viability ([4]; first compound 0.00128 µM)	relative viability ([4]; first compound 0.004048 µM)	relative viability ([4]; first compound 0.0128 µM)	relative viability ([4]; first compound 0.04048 µM)	relative viability ([4]; first compound 0.128 µM)	relative viability ([2]; first compound 0.004048 µM)
HCC-78	0.47	0.464	0.475	0.442	0.424	0.418	0.446	0.326	0.294	0.902	0.926	0.919	0.879	0.836	0.806	0.832	1.07	0.681	0.308	–
HCC-366	0.415	0.361	0.126	0.0306	0.031	0.565	0.0236	0.0226	0.0154	0.207	0.311	0.127	0.0359	0.0398	0.414	0.357	0.0266	0.0306	0.0265	0.333
HCC-827	0.47	0.463	0.499	–	0.325	1.03	0.997	–	0.899	0.283	0.264	0.257	–	0.218	0.698	0.755	0.769	–	0.331	1.05
HOP-62	0.465	0.451	0.403	0.268	0.273	0.907	1.1	0.939	0.38	0.409	0.314	0.271	0.127	0.109	0.445	0.411	0.22	0.171	0.0948	1.04
IA-LM	–	–	–	–	–	0.719	0.657	0.303	0.105	–	–	–	–	–	0.89	0.919	0.68	0.179	0.0981	0.813
LC-2-ad	0.553	0.53	0.494	0.486	0.172	0.955	0.747	0.167	0.0846	0.298	0.257	0.248	0.219	0.209	0.751	0.728	0.643	0.475	0.225	0.863
LCLC-97TM1	0.264	0.213	0.199	0.251	0.209	0.204	0.235	0.26	0.161	0.188	0.204	0.186	0.206	0.116	0.423	0.359	0.406	0.302	0.255	0.294
LCLC-103H	0.5	0.471	0.489	0.477	0.464	1.05	0.998	0.996	1.11	0.452	0.48	0.461	0.557	0.61	0.841	0.745	0.755	0.823	0.831	0.974
